Measurements as given in paper PMC5289826 (PLoS ONE, 2017).

Assays:
[1] = target: T1, recombinant human 11β-HSD1 (Homo sapiens, UniProt P28845); experiment: 11β-HSD1 enzyme activity in cell lysates (cortisone to cortisol, radiolabeled tracer, TLC); format: biochemical
T1 construct: expressed in transfected cells
Description: (§1) Human embryonic kidney (HEK-293) cells either stably expressing human 11β-HSD1 and H6PDH (HHH7 clone, [38]) or 11β-HSD2 (AT8 clone, [39]), or transiently expressing human 17β-HSD1 or 17β-HSD2, were cultivated in Dulbecco’s modified Eagle medium (DMEM) containing 4.5 g/L glucose, 10% fetal bovine serum, 100 U/mL penicillin, 0.1 mg/mL streptomycin, 1 × MEM nonessential amino acids, and 10 mM HEPES buffer, pH 7.4. Cells were washed with phosphate-buffered saline (PBS), centrifuged for 4 min at 150 × g, and the cell pellets were snap frozen on dry ice and stored at −80°C until further use.
(§2) Cell lysates were resuspended in TS2 buffer (100 mM NaCl, 1 mM EGTA, 1 mM EDTA, 1 mM MgCl2, 250 mM sucrose, 20 mM Tris-HCl, pH 7.4), followed by sonication at 4°C using a Hielscher UP50H ultrasonic processor (0.3 cycle, 20 amplitude %, 20 impulses; Hielscher Ultrasonics GmbH, Teltow Germany). Cell lysates, reaction mixture, and either vehicle (DMSO) or inhibitor were incubated for 10 min at 37°C in a final volume of 22.2 μL. The solvent concentration was 0.1%. […] 11β-HSD2 activity was measured in the presence of 50 nM cortisol and 500 μM NAD^+. An amount of 50 nCi of radiolabeled tracer substrate was included in the experiments. […] The bands of the corresponding steroids were excised, followed by scintillation counting and calculation of the amount of substrate conversion. Data were obtained from at least three independent measurements. Glycyrrhetinic acid (CTRL 1) was used as positive control for 11β-HSD1 and 11β-HSD2 inhibition, apigenin (CTRL 2) for 17β-HSD1, and compound 22 from Vuorinen et al. [40](CTRL 3) for 17β-HSD2 inhibition.

[2] = system: T2, recombinant human 11β-HSD2; experiment: 11β-HSD2 enzyme activity in cell lysates (cortisol to cortisone); format: biochemical; settings: 1 μM compound; lysates of HEK-293 cells; 50 nM cortisol
T2 construct: expressed in transfected cells
Description: as §1, §2

human 17β-HSD1 = system: T3, human 17β-HSD1; experiment: 17β-HSD1 enzyme activity in cell lysates (estrone to estradiol); format: biochemical; settings: 1 μM, 200 nM estrone
T3 construct: expressed in transfected cells; host or cells: HEK-293 (transient)
Description: as §1, §2

human 17β-HSD2 = system: T4, human 17β-HSD2; experiment: 17β-HSD2 enzyme activity in cell lysates (estradiol to estrone); format: biochemical; settings: 1 μM, 200 nM estradiol
T4 construct: expressed in transfected cells; host or cells: HEK-293 (transient)
Description: as §1, §2

human 11β-HSD1 = system: T5, human 11β-HSD1; experiment: 11β-HSD1 activity assay in intact HEK-293 cells co-expressing 11β-HSD1 and H6PDH; format: cell-based; settings: 100 nM and 1 μM compound; intact HHH7 cells; 200 nM cortisone; 30 min
T5 construct: expressed in transfected cells
Description: HEK-293 cells co-expressing 11β-HSD1 and H6PDH were seeded in poly-L-lysine coated 96 well-plates (30’000 cells/well) and cultivated in DMEM. At 24 h post-seeding, the cells were washed with charcoal-treated serum-free DMEM (cDMEM) and incubated for 3 h in 100 μL cDMEM. Then, the medium was aspirated and replaced by 30 μL cDMEM. […] The reactions were terminated after 30 min of incubation, followed by analysis of substrate conversion as described above. Data were obtained from at least three independent measurements.

endogenous 11β-HSD1 = target: T6, endogenous 11β-HSD1 (Homo sapiens, UniProt P28845); experiment: 11β-HSD1-dependent cortisol formation in intact primary human keratinocytes; format: cell-based
T6 construct: intact primary human keratinocytes expressing endogenous 11β-HSD1; host or cells: primary human epidermal keratinocytes
Description: Human epidermal keratinocytes obtained from CELLnTEC advanced Cell Systems (Berne, Switzerland) were maintained in CnT-Prime medium (http://cellntec.com/products/cnt-pr/#datasheet) at 37°C. Cells were subcultivated before reaching confluence. After reaching 90% of confluence, the keratinocytes were washed twice with PBS prior to change to cortisol-free CnT-Prime medium (custom-made by CELLnTEC). […] Compound CAS 1009373-58-3 (CTRL 4, Merck Millipore, Darmstadt, Germany) was used as positive control. After 24 h cell culture supernatants were collected and the amount of cortisol produced was measured on a Mulstiskan Ascent plate reader (MTX Lab Systems, Bradenton, FL) using the Cortisol Parameter Assay Kit (R&D Systems, Minneapolis, MN) following the instructions by the manufacturer. Cell viability was assessed using PrestoBlue® Cell Viability Reagent (Invitrogen, Carlsbad, CA) according to the manufacturer’s instructions.

human skin biopsies [3] = experiment: Dermal total collagen content in ex vivo human skin biopsies (Picrosirius Red); settings: 10 μM or 100 μM inhibitor topically, 6 days; 100 nM cortisone for 5 days
Description: (§3) Ex vivo skin experiments were performed as contract research by Cutech Biotechnology following the Helsinki declaration and who obtained permission as well as informed consent from the patient (Padova, Italy). Human skin from abdominal plastic surgery of a donor was used. Skin samples were cut in pieces of approximately 8 × 3 mm (diameter × thickness) and cultured in an air-liquid interface in a perforated ring of stainless steel in contact with culture medium (modified Williams’ E medium, Sigma Aldrich) up to day 6. The culture medium was renewed on day 0 and day 3. The test compounds were applied topically and renewed daily. The application was performed as follows: skin biopsies were gently cleaned with a cotton pad and 4 μL of 10 μM or 100 μM test compound were applied on top of each piece and covered with a 6 mm (diameter) delivery membrane (CoTran 9728 Controlled Caliper Ethylene Vinyl Acetate Membrane, 3M, St. Paul, MN, USA).
Skin viability was assessed in two skin biopsies after 6 days of treatment using methylthiazolyldiphenyl‐tetrazolium bromide (MTT, Sigma Aldrich) staining. Total dermal collagen in skin sections was semi-quantitatively evaluated by Picrosirius Red histochemical staining (using Picric Acid, Fast Green FCF and Direct Red from Sigma Aldrich) that dyes collagen fibers in purple-red. […] The evaluation was performed by estimating both color intensity and distribution using IMAGE J (NIH) analysis software, allowing to obtain a semi-quantitative evaluation of dermal collagen (collagen score). Two slides of each skin sample were processed by image acquisition and related analysis (i.e. 12 images for each treatment).

human skin biopsies [4] = experiment: Dermal collagen III content in UV exposed ex vivo human skin biopsies (anti-collagen III antibody); settings: for collagen III vs UV treated vehicle control (in words): 100 μM
Description: as §3
Skin biopsies were subjected to UV irradiation using a BIO-SUN system (Vilber Lourmat, Eberhardzell, Germany). The system had the following specifications: Lamp wave length: UVB 312 nm (range 280–320 nm) and UVA 365 nm (range 355–375 nm), range of measure (irradiance): accuracy and linearity ± 0.2%, range of programmed energy: 0.1 to 99.99 J/cm^2, intensity: UVA (365 nm) 5 mW/cm^2, UVB (312 nm) 3 mW/cm^2, UVA + UVB: 5.6 + 3.2 mW/cm^2, respectively. The selected UV irradiation intensities were 40% and 80% of the Biological Effective Dose (BED) of 7.5 J/cm^2 UV daylight as described by Del Bino et al.. UV 40% BED = 3.0 J/cm^2 (= 0.1 J/cm^2 UVB + 2.9 J/cm^2 UVA); UV 80% = 6.0 J/cm^2 (= 0.2 J/cm^2 UVB + 5.8 J/cm^2 UVA).
Furthermore, in a preliminary set of experiments, skin biopsies were UV irradiated at 3.0 J/cm^2 and 6.0 J/cm^2 and treated topically with 4 μL of 10 μM or 100 μM of the respective inhibitor, followed by determination of collagen III content using a mouse monoclonal anti-collagen III antibody (Sigma Aldrich).

T1 sequence (P28845 whole entry): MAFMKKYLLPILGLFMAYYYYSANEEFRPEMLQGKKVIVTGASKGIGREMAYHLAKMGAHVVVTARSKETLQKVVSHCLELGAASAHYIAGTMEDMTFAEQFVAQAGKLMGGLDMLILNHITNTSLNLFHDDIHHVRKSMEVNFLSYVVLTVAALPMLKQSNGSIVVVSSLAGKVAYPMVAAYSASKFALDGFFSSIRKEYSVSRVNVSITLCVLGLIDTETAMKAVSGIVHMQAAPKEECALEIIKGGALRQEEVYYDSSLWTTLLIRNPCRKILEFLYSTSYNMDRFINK
T6 sequence (P28845 whole entry): as above

IC50 [1]: 34.5 nM | 11β-HSD1 Residual activity, % of control at 100 nM ([1]; 100 nM compound, lysates of HEK-293 cells, 200 nM cortisone, mean of three experiments): 19 % of control | 11β-HSD1 Residual activity, % of control at 1 μM ([1]; 1 μM compound, lysates of HEK-293 cells, 200 nM cortisone, mean of three experiments): 1 % of control | inhibition of cortisol formation (in words) (endogenous 11β-HSD1; 1 μM compound, primary human keratinocytes, 1 μM cortisone, 24 h): almost completely inhibited | IC50 (endogenous 11β-HSD1; read-out: estimated IC50 of cortisol formation): ≤ 100 nM | melting point: 106 to 108 °C
Compound: Cc1ccc(-c2cccc(C(=O)N3CCCCCC3)c2)cc1F [3e, Azepan-1-yl(3’-fluoro-4’-methyl-[1,1’-biphenyl]-3-yl)methanone]
11β-HSD2 Residual activity, % of control at 1 μM [2]: > 90 % of control | inhibition of 17β-HSD1 (in words) (human 17β-HSD1): selective | inhibition of 17β-HSD2 (in words) (human 17β-HSD2): selective | inhibition of 11β-HSD1 in intact cells (in words) (human 11β-HSD1): almost completely inhibited | effect on cortisone-induced collagen decrease (in words) (human skin biopsies [3]): prevented the cortisone-induced collagen decrease | collagen III vs UV treated vehicle control (in words) (human skin biopsies [4]; 3.0 J/cm^2 UV irradiation, p<0.01): significantly higher collagen III | collagen III vs UV treated vehicle control (in words) (human skin biopsies [4]; 6.0 J/cm^2 UV irradiation): significantly higher collagen III | effect on UV-mediated decrease in collagen III levels (in words) (human skin biopsies [4]; topical 10 μM or 100 μM, 3.0 and 6.0 J/cm^2 UV, preliminary): prevented the decrease in collagen III levels
